≈ marks a conversion by molar mass, not a printed value. Where two headings read alike, the source gives them in different places.
What was measured:
[1] = system: Lact. acidoph.; assay: MIC in brain heart infusion (BHI) broth, two-fold dilutions; format: cell-based; settings: 24 h; Lact. acidoph. 001, Day 1
Excerpt: (§1) Generally twelve 2 fold dilutions of the test compound are employed, with initial concentration of the test drug being in the range of 50 to 200 mcg./ml. The susceptibility (MIC) of the test organism is accepted as the lowest concentration of compound capable of producing complete inhibition of growth as judged by the naked eye.

[2] = system: Past. haem.; assay: as above; format: cell-based
Excerpt: as §1

[3] = system: Staph. aureus; assay: as above; format: cell-based; settings: Staphylococcus aureus
Excerpt: as §1

[4] = system: Fusob. necro.; assay: as above; format: cell-based; settings: 24 h
Excerpt: as §1

[5] = system: Acto. pyog.; assay: as above; format: cell-based; settings: 24 h
Excerpt: as §1

[6] = system: Trepo. hyodis.; assay: as above; format: cell-based; settings: 24 h
Excerpt: as §1

[7] = system: E. coli; assay: as above; format: cell-based; settings: Escherichia coli
Excerpt: as §1

[8] = system: Hemoph. pleur.; assay: as above; format: cell-based; settings: 24 h
Excerpt: as §1

[9] = system: Morax. bovis; assay: as above; format: cell-based
Excerpt: as §1

[10] = system: Strep. zooedid.; assay: as above; format: cell-based; settings: 24 h; Strep. zooedid. 001, Day 1
Excerpt: as §1

[11] = system: Lact. sp.; assay: as above; format: cell-based; settings: 24 h; Lact. sp. 001, Day 1
Excerpt: as §1

[12] = system: Past. mult; assay: as above; format: cell-based
Excerpt: as §1

[13] = system: Past. haem. 010; assay: mouse protection test; format: in vivo; settings: mice infected i.p. with multilethal amounts of Past. haem. 010
Procedure: Additionally, compound (I) is tested in vivo by the well-known mouse protection test, or by a microbiological (bioassay) determination of serum levels in a variety of mammals (e.g., mouse, rat, dog). For example, at subcutaneous doses of either 100 mg./kg. or 25 mg./kg., there was survival of 5/5 mice infected i.p. with multilethal amounts of Past. haem. 010.

Work on CC=CC=CC1OC(O)(C(CC)C(=O)NCC=CC=C(C)C(OC)C(C)C2OC(C=CC=CC=C(C)C(=O)c3c(O)cc[nH]c3=O)C(O)C2O)C(O)C(OC2OC(C)C(OC3OC(C)C(OC)C(O)C3OC)C(OC)C2O)C1(C)C (stereo not drawn) [N--Demethylefrotomycin, N-demethylefrotomycin] yielded an MIC [1] of 12.5 µg/mL (≈ 11 µM), an MIC ([2]; 24 h) of 12.5 µg/mL (≈ 11 µM) and an MIC ([2]; 24 h, Past. haem. 010, Day 1, read-out: MIC) of 3.12 µg/mL (≈ 2.76 µM). The MIC ([2]; 24 h, Past. haem. 046, Day 1, read-out: MIC) was 25 µg/mL (≈ 22.1 µM), the MIC ([2]; 24 h, Past. haem. 061, Day 1, read-out: MIC) was 25 µg/mL (≈ 22.1 µM) and the MIC ([2]; 48 h) was 12.5 µg/mL (≈ 11 µM). For the same compound, the MIC ([2]; 48 h, Past. haem. 061, Day 2, read-out: MIC) was 3.12 µg/mL (≈ 2.76 µM), the MIC ([2]; Past. haem. 046, Day 2) was 12.5 µg/mL (≈ 11 µM) and the MIC ([3]; 24 h, Staph. aureus 006, Day 1) was greater than 100 µg/mL. The MIC ([3]; 48 h, Staph. aureus 006, Day 2) was greater than 100 µg/mL, the MIC ([4]; Fusob. necro. 004, Day 1) was 25 µg/mL (≈ 22.1 µM) and the MIC ([4]; Fusob. necro. 006, Day 1) was 6.25 µg/mL (≈ 5.52 µM). For the same compound, the MIC ([5]; Acto. pyog. 002, Day 1) was 12.5 µg/mL (≈ 11 µM), the MIC ([5]; Acto. pyog. 008, Day 1) was 12.5 µg/mL (≈ 11 µM) and the MIC ([5]; Acto. pyog. 011, Day 1, read-out: MIC) was 100 µg/mL (≈ 88.4 µM). It also gave an MIC ([6]; Trepo. hyodis. 001, Day 1) of 1.56 µg/mL (≈ 1.38 µM), an MIC ([6]; Trepo. hyodis. 002, Day 1) of 0.78 µg/mL (≈ 0.689 µM) and an MIC ([6]; Trepo. hyodis. 007, Day 1) of 1.56 µg/mL (≈ 1.38 µM). For the same compound, the MIC ([7]; 24 h, E. coli 124, Day 1) was greater than 100 µg/mL, the MIC ([7]; 48 h, E. coli 124, Day 2) was greater than 100 µg/mL and the MIC ([8]; Hemoph. pleur. 004, Day 1) was 12.5 µg/mL (≈ 11 µM). For the same compound, the MIC ([8]; Hemoph. pleur. 005, Day 1) was 12.5 µg/mL (≈ 11 µM), the MIC ([8]; Hemoph. pleur. 024, Day 1, read-out: MIC) was greater than 100 µg/mL and the MIC ([9]; 24 h, Morax. bovis 001, Day 1) was 6.25 µg/mL (≈ 5.52 µM). For the same compound, the MIC ([9]; 48 h, Morax. bovis 001, Day 2) was 3.12 µg/mL (≈ 2.76 µM), the MIC [10] was greater than 100 µg/mL and the MIC [11] was greater than 100 µg/mL. The MIC ([12]; 24 h, Past. mult 006, Day 1, read-out: MIC) was 6.25 µg/mL (≈ 5.52 µM), the MIC ([12]; 24 h, Past. mult 048, Day 1, read-out: MIC) was 3.12 µg/mL (≈ 2.76 µM) and the MIC ([12]; 48 h) was 12.5 µg/mL (≈ 11 µM). The MIC ([12]; 48 h, Past. mult 048, Day 2, read-out: MIC) was 6.25 µg/mL (≈ 5.52 µM), the survival of mice ([13]; subcutaneous 25 mg./kg.) was 5/5 and the survival of mice ([13]; subcutaneous 100 mg./kg.) was 5/5.

Reference: patent US4847245A, “N-demethylefrotomycin” (Pfizer Inc., priority 1988, dated 1989)
